# Measurements taken from patent US8188080B2 (Sanford-Burnham Medical Research Institute, priority 2007, dated 2012).
# Read-outs that look alike come from different tables or passages of the source.
# Columns and labels:
# Type in all cases: biochemical
# PTP1B = target: T1, PTP1B (Homo sapiens, UniProt P18031); test: PTP-catalyzed hydrolysis of DiFMUP, IC50 determination (PTP1B)
# T1 sequence (P18031 1-435): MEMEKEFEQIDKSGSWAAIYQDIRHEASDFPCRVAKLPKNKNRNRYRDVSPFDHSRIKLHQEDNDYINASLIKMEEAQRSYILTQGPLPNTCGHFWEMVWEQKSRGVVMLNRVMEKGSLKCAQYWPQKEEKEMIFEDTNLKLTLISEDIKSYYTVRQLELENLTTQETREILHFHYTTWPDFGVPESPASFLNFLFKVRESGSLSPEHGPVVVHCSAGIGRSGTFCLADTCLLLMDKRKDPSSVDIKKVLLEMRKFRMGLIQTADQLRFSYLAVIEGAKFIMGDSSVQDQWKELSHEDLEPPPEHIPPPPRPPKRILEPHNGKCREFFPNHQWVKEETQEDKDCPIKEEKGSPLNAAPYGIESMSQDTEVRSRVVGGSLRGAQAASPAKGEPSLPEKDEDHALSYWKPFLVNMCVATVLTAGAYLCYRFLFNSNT
# Method: (§1) The PTP-catalyzed hydrolysis of 6,8-difluoro-4-methylumbelliferyl phosphate (DiFMUP) in the presence of the test compound is assayed at 30° C. in a 60 μL 96 well format reaction system in 0.15 M Bis-Tris, pH 6.0 assay buffer having an ionic strength of 150 mM (adjusted with NaCl) and containing 1 mM dithiotreitol and 5% DMSO. At various concentrations of the compound, the initial rate at fixed DiFMUP concentration (equal to the corresponding Km value for each PTP) was determined using a FLx800 micro plate reader (Bio-Tek Instruments, Inc.), an excitation wave length of 360 nm and measuring the emission of the fluorescent reaction product 6,8-difluoro-7-hydroxy-4-methylcoumarin (DiFMU) at 460 nm. The nonenzymatic hydrolysis of the substrate was corrected by measuring the control without addition of enzyme. The IC50 value was determined by plotting the relative activity versus inhibitor concentrations and fitting to Equation 1 using the software GraphPad Prism™ (GraphPad Software, Inc.).
# (§2) [formula] In this case, Vi, is the reaction velocity when the inhibitor concentration is [I], V0 is the reaction velocity with no inhibitor and IC50=Ki+Ki[S]/Km.
# HePTP = target: T2, HePTP (Homo sapiens, UniProt P35236); test: PTP-catalyzed hydrolysis of DiFMUP, IC50 determination (HePTP)
# T2 sequence (P35236 1-360): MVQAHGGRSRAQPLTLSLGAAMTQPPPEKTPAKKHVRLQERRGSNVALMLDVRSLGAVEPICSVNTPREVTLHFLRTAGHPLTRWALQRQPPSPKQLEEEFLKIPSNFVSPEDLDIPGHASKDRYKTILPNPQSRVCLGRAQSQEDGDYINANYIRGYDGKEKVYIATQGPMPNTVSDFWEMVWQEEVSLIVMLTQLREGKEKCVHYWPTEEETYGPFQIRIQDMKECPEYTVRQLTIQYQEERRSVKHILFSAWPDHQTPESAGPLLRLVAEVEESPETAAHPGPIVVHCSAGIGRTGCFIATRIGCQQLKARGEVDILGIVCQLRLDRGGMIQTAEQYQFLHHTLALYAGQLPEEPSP
# Method: as §1, §2
# MKP-1 = target: T3, MKP-1 (Homo sapiens, UniProt P28562); test: PTP-catalyzed hydrolysis of DiFMUP, IC50 determination (MKP-1)
# T3 sequence (P28562 1-367): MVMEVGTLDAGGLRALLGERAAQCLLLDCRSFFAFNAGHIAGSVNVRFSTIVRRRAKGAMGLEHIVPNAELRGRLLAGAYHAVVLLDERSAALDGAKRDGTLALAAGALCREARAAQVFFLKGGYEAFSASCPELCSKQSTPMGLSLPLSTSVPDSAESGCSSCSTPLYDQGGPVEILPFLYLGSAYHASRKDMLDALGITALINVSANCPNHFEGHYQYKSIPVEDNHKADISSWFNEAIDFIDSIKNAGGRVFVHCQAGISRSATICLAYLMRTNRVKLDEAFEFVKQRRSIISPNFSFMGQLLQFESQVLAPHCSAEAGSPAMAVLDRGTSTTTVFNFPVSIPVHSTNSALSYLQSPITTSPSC
# Method: The PTP-catalyzed hydrolysis of 6,8-difluoro-4-methylumbelliferyl phosphate (DiFMUP) in the presence of the test compound is assayed at 30° C. in a 60 μL 96 well format reaction system in 0.15 M Bis-Tris, pH 6.0 assay buffer having an ionic strength of 150 mM (adjusted with NaCl) and containing 1 mM dithiotreitol and 5% DMSO. […] The nonenzymatic hydrolysis of the substrate was corrected by measuring the control without addition of enzyme. The IC50 value was determined by plotting the relative activity versus inhibitor concentrations and fitting to Equation 1 using the software GraphPad Prism™ (GraphPad Software, Inc.).
# as §2
# VHR = VHR (Homo sapiens, UniProt P51452); test: PTP-catalyzed hydrolysis of DiFMUP, IC50 determination (VHR); conditions: DiFMUP at Km, pH 6.0, 30° C.
# Method: as §1, §2
# [1] = Table II, DiFMUP at Km, pH 6.0, 30° C.
# VHR, sequence (P51452 whole entry): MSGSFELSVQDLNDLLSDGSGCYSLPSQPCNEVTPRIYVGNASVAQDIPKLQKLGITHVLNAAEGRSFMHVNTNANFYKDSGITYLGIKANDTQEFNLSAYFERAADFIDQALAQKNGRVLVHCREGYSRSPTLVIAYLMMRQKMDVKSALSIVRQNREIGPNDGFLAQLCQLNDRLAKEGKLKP
smiles,measurement,setting,value
O=C1/C(=C/c2cn(-c3ccccc3)nc2-c2ccc(S(=O)(=O)N3CCOCC3)cc2)SC(=S)N1CCS(=O)(=O)O [Compound 14],IC50,PTP1B,0.592 µM
same,IC50,HePTP,1.16 µM
same,IC50,MKP-1,0.474 µM
same,IC50,"VHR; Table I, read-out: IC50",2.44 µM
same,IC50,"VHR; Table II, read-out: IC50 VHR",0.071 µM
"O=C1/C(=C/c2cn(-c3ccccc3)nc2-c2ccc(OCc3ccc(Cl)cc3)cc2)SC(=S)N1CCS(=O)(=O)O [Compound 10, (Z)-2-[5-({3-[4-(4-chlorobenzyloxy)phenyl]-1-phenyl-1H-pyrazol-4-yl}methylene)-4-oxo-2-thioxothiazolidin-3-yl]ethane sulfonic acid]",IC50,PTP1B; [1],0.456 µM
same,IC50,HePTP; [1],0.622 µM
same,IC50,MKP-1; [1],0.457 µM
same,IC50,"VHR; Table I, read-out: IC50",0.018 µM
same,IC50,"VHR; Table II, read-out: IC50 VHR",0.018 µM
O=C1/C(=C/c2cn(-c3ccccc3)nc2-c2ccc(OCc3ccccc3)cc2)SC(=S)N1CCS(=O)(=O)O [Compound 9],IC50,PTP1B,1.75 µM
same,IC50,HePTP,1.52 µM
same,IC50,MKP-1; [1],0.779 µM
same,IC50,"VHR; Table I, read-out: IC50",0.078 µM
same,IC50,"VHR; Table II, read-out: IC50 VHR",0.078 µM
